Measured values published in PubChem BioAssay AID206 (DTP/NCI, 2004).
Records with an inconclusive call do not appear.

Tested on: nude mice, HT29 intrarenal xenograft, tumor weight T/C
Assay: NCI In Vivo Anticancer Drug Screen. Data for tumor model HT29;CX-1 Human Adenocarcinoma (MER+) (intrarenal inoculation) in NU/NU Swiss (nude) mice
Conditions: endpoint: mean tumor weight change, higher = larger tumour
Method in brief: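 Readout: treated/vehicle-control ratio of the measured endpoint (tumor size or survival) in transplanted-tumor mice.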

[1] = dose: 50.0 mg/kg/injection, schedule: Q01DX010 (sc), vehicle: saline with Tween-80
[2] = dose: 100.0 mg/kg/injection, schedule: Q01DX010 (sc), vehicle: saline with Tween-80
[3] = dose: 200.0 mg/kg/injection, schedule: Q01DX010 (sc), vehicle: saline with Tween-80
[4] = dose: 400.0 mg/kg/injection, schedule: Q01DX010 (sc), vehicle: saline with Tween-80

## O=[Te]=O
dose: 25.0 mg/kg/injection, schedule: Q04DX004 (sc), vehicle: Klucel (hydroxypropylcellulose) (HPC)
  T/C: 170 % of control
dose: 50.0 mg/kg/injection, schedule: Q04DX004 (sc), vehicle: Klucel (hydroxypropylcellulose) (HPC)
  T/C: 74 % of control

## CS(=O)(=O)c1ncc(Br)cn1
dose: 62.5 mg/kg/injection, schedule: Q04DX004 (sc), vehicle: saline
  T/C: 83 % of control
dose: 75.0 mg/kg/injection, schedule: Q04DX004 (sc), vehicle: saline with Tween-80
  T/C: 99 % of control
dose: 125.0 mg/kg/injection, schedule: Q04DX004 (sc), vehicle: saline
  T/C: 109 % of control
dose: 150.0 mg/kg/injection, schedule: Q04DX004 (sc), vehicle: saline with Tween-80
  T/C: 109 % of control
dose: 250.0 mg/kg/injection, schedule: Q04DX004 (sc), vehicle: saline
  T/C: 92 % of control
dose: 300.0 mg/kg/injection, schedule: Q04DX004 (sc), vehicle: saline with Tween-80
  T/C: 57 % of control
dose: 500.0 mg/kg/injection, schedule: Q04DX004 (sc), vehicle: saline
  T/C: 89 % of control

## CO[C@H]1C[C@@H]2CC[C@@H](C)[C@@](O)(O2)C(=O)C(=O)N2CCCC[C@H]2C(=O)O[C@H]([C@H](C)C[C@@H]2CC[C@@H](O)[C@H](OC)C2)CC(=O)[C@H](C)C=C(C)[C@@H](O)[C@@H](OC)C(=O)[C@H](C)C[C@H](C)/C=C/C=C/C=C1C
[1]
  T/C: 28 % of control

## O=C(O)C1CSCN1 (stereo not given)
dose: 50.0 mg/kg/injection, schedule: Q01DX010 (sc), vehicle: water
  T/C: 96 % of control
dose: 100.0 mg/kg/injection, schedule: Q01DX010 (sc), vehicle: water
  T/C: 105 % of control

## COc1ccc(OC)c(/C=C/c2ccnc3ccccc23)c1
[2]
  T/C: 92 % of control
[3]
  T/C: 61 % of control
[4]
  T/C: 91 % of control
dose: 800.0 mg/kg/injection, schedule: Q01DX010 (sc), vehicle: saline with Tween-80
  T/C: 113 % of control

## c1ccc(CN2CCOC2)cc1
dose: 25.0 mg/kg/injection, schedule: Q01DX010 (sc), vehicle: suspension in saline
  T/C: 100 % of control
dose: 50.0 mg/kg/injection, schedule: Q01DX010 (sc), vehicle: suspension in saline
  T/C: 106 % of control
dose: 100.0 mg/kg/injection, schedule: Q01DX010 (sc), vehicle: suspension in saline
  T/C: 102 % of control

## CO[C@H](/C(C)=C/C=C/C(C)=C/c1coc(C)n1)[C@H](C)[C@H]1C[C@@H](O)[C@@]2(C)O[C@H]2/C=C/[C@@H](C)[C@@H]2C[C@@H](CC(=O)O2)C[C@H]2O[C@@H]2C(=O)O1
dose: 0.12 mg/kg/injection, schedule: Q04DX004 (sc), vehicle: Klucel (hydroxypropylcellulose) (HPC)
  T/C: 87 % of control
dose: 0.25 mg/kg/injection, schedule: Q04DX004 (sc), vehicle: Klucel (hydroxypropylcellulose) (HPC)
  T/C: 45 % of control
dose: 0.5 mg/kg/injection, schedule: Q04DX004 (sc), vehicle: Klucel (hydroxypropylcellulose) (HPC)
  T/C: 30 % of control

## CNc1nc(N(C)C)nc(N(C)C)n1
dose: 12.5 mg/kg/injection, schedule: Q04DX004 (sc), vehicle: water
  T/C: 54 % of control
dose: 15.0 mg/kg/injection, schedule: Q01DX010 (sc), vehicle: water
  T/C: 89 % of control
dose: 25.0 mg/kg/injection, schedule: Q04DX004 (sc), vehicle: water
  T/C: 75 % of control
dose: 50.0 mg/kg/injection, schedule: Q04DX004 (sc), vehicle: water
  T/C: 51 % of control
dose: 100.0 mg/kg/injection, schedule: Q04DX004 (sc), vehicle: water
  T/C: 51 % of control

## O=C(O)C(O)C(O)C1[O][Sb][O]C1C(=O)O (stereo not given)
dose: 37.5 mg/kg/injection, schedule: Q04DX004 (sc), vehicle: saline
  T/C: 100 % of control
dose: 75.0 mg/kg/injection, schedule: Q04DX004 (sc), vehicle: saline
  T/C: 73 % of control
dose: 150.0 mg/kg/injection, schedule: Q04DX004 (sc), vehicle: saline
  T/C: 93 % of control

## CN(C)CCOc1ccc2c(c1)C/C(=C/c1ncc([N+](=O)[O-])n1C)C2=O
[1]
  T/C: 83 % of control
[2]
  T/C: 78 % of control
[3]
  T/C: 18 % of control
[4]
  T/C: 93 % of control

## COc1cccc2c1C(=O)c1c(O)c3c(c(O)c1C2=O)C[C@@](O)(C(=O)CO)C[C@@H]3OC1CC(OC(C)=O)C(OC(C)=O)C(C)O1 (stereo not given in full)
dose: 25.0 mg/kg/injection, schedule: Q01DX010 (sc), vehicle: distilled water + Tween-80
  T/C: 35 % of control
